Measured values reported in the NIST ThermoML archive (doi:10.1016/j.jct.2014.06.004).

Assays:
[1] = xn = mol fraction of the nth substance listed; conditions: 100 kPa, Liquid; for mass density: Vibrating tube method; for speed of sound: Frequency=3 MHz, Sing-around technique in a fixed-path interferometer
[2] = refractive index (Na D-line) (dimensionless); xn = mol fraction of the nth substance listed; conditions: 100 kPa, Liquid, Standard Abbe refractometry

CCCCCCC(=O)O [heptanoic acid] + CCCC(=O)O
Conditions | mass density, [1] [kg/m3] | refractive index, [2] | speed of sound, [1] [m/s]
293.15 K, x1 = 0.0559 | – | 1.4005 | –
293.15 K, x1 = 0.1059 | – | 1.4024 | –
293.15 K, x1 = 0.2061 | – | 1.4054 | –
293.15 K, x1 = 0.3087 | – | 1.4084 | –
293.15 K, x1 = 0.4037 | – | 1.4109 | –
293.15 K, x1 = 0.5037 | – | 1.4134 | –
293.15 K, x1 = 0.6006 | – | 1.4157 | –
293.15 K, x1 = 0.7049 | – | 1.4179 | –
293.15 K, x1 = 0.805 | – | 1.4199 | –
293.15 K, x1 = 0.9052 | – | 1.4217 | –
293.15 K, x1 = 0.9575 | – | 1.4226 | –
293.15 K, x1 = 1 | – | 1.4234 | –
298.15 K, x1 = 0.0559 | – | 1.3984 | –
298.15 K, x1 = 0.1059 | – | 1.4001 | –
298.15 K, x1 = 0.2061 | – | 1.4033 | –
298.15 K, x1 = 0.3087 | – | 1.4063 | –
298.15 K, x1 = 0.4037 | – | 1.4089 | –
298.15 K, x1 = 0.5037 | – | 1.4114 | –
298.15 K, x1 = 0.6006 | – | 1.4136 | –
298.15 K, x1 = 0.7049 | – | 1.4159 | –
298.15 K, x1 = 0.805 | – | 1.4179 | –
298.15 K, x1 = 0.9052 | – | 1.4197 | –
298.15 K, x1 = 0.9575 | – | 1.4207 | –
298.15 K, x1 = 1 | – | 1.4214 | –
303.15 K, x1 = 0.0559 | – | 1.3963 | –
303.15 K, x1 = 0.1059 | – | 1.398 | –
303.15 K, x1 = 0.2061 | – | 1.4012 | –
303.15 K, x1 = 0.3087 | – | 1.4042 | –
303.15 K, x1 = 0.4037 | – | 1.4068 | –
303.15 K, x1 = 0.5037 | – | 1.4093 | –
303.15 K, x1 = 0.6006 | – | 1.4116 | –
303.15 K, x1 = 0.7049 | – | 1.4138 | –
303.15 K, x1 = 0.805 | – | 1.4158 | –
303.15 K, x1 = 0.9052 | – | 1.4177 | –
303.15 K, x1 = 0.9575 | – | 1.4186 | –
303.15 K, x1 = 1 | – | 1.4194 | –
308.15 K, x1 = 0.0559 | – | 1.3942 | –
308.15 K, x1 = 0.1059 | – | 1.3958 | –
308.15 K, x1 = 0.2061 | – | 1.3991 | –
308.15 K, x1 = 0.3087 | – | 1.4021 | –
308.15 K, x1 = 0.4037 | – | 1.4047 | –
308.15 K, x1 = 0.5037 | – | 1.4072 | –
308.15 K, x1 = 0.6006 | 916 | 1.4095 | –
308.15 K, x1 = 0.7049 | 912.8 | 1.4117 | –
308.15 K, x1 = 0.805 | 910 | 1.4138 | –
308.15 K, x1 = 0.9052 | 907.4 | 1.4157 | –
308.15 K, x1 = 0.9575 | 906.1 | 1.4166 | –
308.15 K, x1 = 1 | 905.1 | 1.4173 | –
313.15 K, x1 = 0.0559 | 934.6 | 1.392 | 1129
313.15 K, x1 = 0.1059 | 931.9 | 1.3937 | 1136
313.15 K, x1 = 0.2061 | 926.8 | 1.397 | 1148
313.15 K, x1 = 0.3087 | 922.3 | 1.4 | 1161
313.15 K, x1 = 0.4037 | 918.5 | 1.4026 | 1171
313.15 K, x1 = 0.5037 | 914.8 | 1.4051 | 1182
313.15 K, x1 = 0.6006 | 911.6 | 1.4074 | 1191
313.15 K, x1 = 0.7049 | 908.4 | 1.4097 | 1201
313.15 K, x1 = 0.805 | 905.7 | 1.4117 | 1209
313.15 K, x1 = 0.9052 | 903.1 | 1.4136 | 1218
313.15 K, x1 = 0.9575 | 901.9 | 1.4146 | 1222
313.15 K, x1 = 1 | 900.9 | 1.4153 | 1225
